Source: patent US20230382870A1, “N-AROMATIC AMIDE COMPOUNDS, PREPARATION METHODS AND USES THEREOF” (SHENZHEN EDK PHARMACEUTICAL TECHNOLOGY CO., LTD., priority 2021, published 2023)
One block for each molecule: values may come before it.

Molecular target: androgen receptor (Rattus norvegicus (Rat), UniProt P15207)
Experiment: Androgen receptor competition binding with radiolabeled dihydrotestosterone (hydroxyapatite separation, scintillation counting)
Details: androgen receptor from prostate of male SD rats; competition with radiolabeled DHT; 4 Celsius degrees, 15 hours
Method: Reagents and instruments: radiolabeled dihydrotestosterone […] and unlabelled dihydrotestosterone (DHT) purchased from Sigma-Aldrich (St. Louis, Mo.), scintillation solution purchased from Perkin Elmer Life Sciences (Boston, Mass.), hydroxyapatite (HAP) suspension purchased from Bio-Rad Laboratories (Hercules, Calif.), buffer (containing 10 mM Tris, 1.5 mM disodium EDTA, 0.25 M sucrose, 10 mM sodium molybdate and 1 mM PMSF, pH value adjusted to 7.4), and hydroxyapatite (HAP) solution (containing 50 mM Tris and 1 mM KH2PO4, pH value adjusted to 7.4).
In the present invention, the biological activity of the N-aromatic amide compounds with the formula (I) and/or (II) is measured accord to the following method. […] The androgen receptor (prepared from the prostate of male SD rats, 200-250 g of male Sprague-Dawley rats) and the radiolabeled dihydrotestosterone ([…], 84 Ci/mmol) are added to the buffer and well mixed for preparing reaction solution. The concentration gradients of the diluted compounds are respectively added into the reaction solution and well mixed, and the resulting mixtures are incubated at 4 Celsius degrees for 15 hours, so that the compounds and the dihydrotestosterone can fully react with the androgen receptor. Thereafter, the hydroxyapatite (HAP) suspension is added therein, well mixed, incubated for 10 minutes at 4 Celsius degrees, and centrifuged for removing the supernatant containing free dihydrotestosterone. The dihydrotestosterone bound to the androgen receptor is adsorbed in the hydroxyapatite and thus retained in the precipitated particles, thereby separating the bound and unbound radiolabelled ligands. A scintillation solution is added to the precipitate, well mixed, and detected for the radioactivity intensity using a WALLACE MicroBeta Trilux Scintillator (Perkin Elmer).The detected radioactivity intensity values for the concentration gradients are processed to obtain values of ICso and K. The specific biological activity (the competition results between androgen receptor ligand and radioligand) is shown in the following table: […]

Chain of androgen receptor (P15207 whole entry S389L): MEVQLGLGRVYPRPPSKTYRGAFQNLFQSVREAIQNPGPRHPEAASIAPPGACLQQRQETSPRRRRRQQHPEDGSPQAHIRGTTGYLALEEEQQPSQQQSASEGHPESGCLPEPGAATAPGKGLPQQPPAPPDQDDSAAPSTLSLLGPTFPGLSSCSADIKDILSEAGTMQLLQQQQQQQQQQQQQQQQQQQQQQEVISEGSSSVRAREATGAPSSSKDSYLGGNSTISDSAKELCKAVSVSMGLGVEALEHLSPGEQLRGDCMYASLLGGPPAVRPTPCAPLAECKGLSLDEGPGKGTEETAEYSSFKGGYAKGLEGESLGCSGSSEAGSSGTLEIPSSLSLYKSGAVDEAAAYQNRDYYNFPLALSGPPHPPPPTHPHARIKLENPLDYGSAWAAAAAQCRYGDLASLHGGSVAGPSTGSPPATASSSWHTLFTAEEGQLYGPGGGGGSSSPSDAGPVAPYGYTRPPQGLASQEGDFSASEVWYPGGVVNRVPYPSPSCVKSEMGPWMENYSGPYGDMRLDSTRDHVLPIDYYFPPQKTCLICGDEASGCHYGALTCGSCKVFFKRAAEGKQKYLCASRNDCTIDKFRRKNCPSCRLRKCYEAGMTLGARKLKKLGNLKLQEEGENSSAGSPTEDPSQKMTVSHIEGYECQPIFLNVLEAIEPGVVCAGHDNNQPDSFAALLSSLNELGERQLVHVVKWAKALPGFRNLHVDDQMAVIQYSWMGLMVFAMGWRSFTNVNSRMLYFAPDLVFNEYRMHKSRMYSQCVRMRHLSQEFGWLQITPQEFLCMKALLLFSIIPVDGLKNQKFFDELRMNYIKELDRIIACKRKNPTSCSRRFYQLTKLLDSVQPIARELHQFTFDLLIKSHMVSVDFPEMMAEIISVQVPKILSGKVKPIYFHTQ

SMILES: CC(C)(C(=O)Nc1ccc(C#N)c(C(F)(F)F)c1)n1ccc2c(F)cc(-c3ccc(F)cc3)cc21 [Example 1, N-(4-cyano-3-trifluoromethyl)-phenyl-2-[4-fluoro-6-(4-fluorophenyl)-1H-indolyl-1-yl]-2-methylpropanamide]
IC50: 0.546 µM

SMILES: CC(C)(C(=O)Nc1ccc(C#N)c(C(F)(F)F)c1)n1ccc2cc(F)c(-c3ccccc3)cc21 [Example 2, N-(4-cyano-3-trifluoromethyl) phenyl-2-(5-fluoro-6-phenyl-1H-indolyl-1-yl)-2-methylpropanamide]
IC50: 0.337 µM

SMILES: CC(C)(C(=O)Nc1ccc(C#N)c(C(F)(F)F)c1)n1ccc2cc(F)ccc21 [Example 3, N-(4-cyano-3-trifluoromethyl)-phenyl-2-(5-fluoro-1H-indolyl-1-yl)-2-methylpropanamide]
IC50: 0.215 µM
Ki: 0.367 µM

SMILES: CC(C)(C(=O)Nc1ccc(C#N)c(C(F)(F)F)c1)n1ccc2c(F)cccc21 [Example 4, N-(4-cyano-3-trifluoromethyl)-phenyl-2-(4-fluoro-1H-indolyl-1-yl)-2-methylpropanamide]
IC50: 0.246 µM
Ki: 0.491 µM

SMILES: CC(C)(C(=O)Nc1ccc(C#N)c(C(F)(F)F)c1)n1ccc2ccc(F)cc21 [Example 5, N-(4-cyano-3-trifluoromethyl)-phenyl-2-(6-fluoro-1H-indolyl-1-yl)-2-methylpropanamide]
IC50: 0.227 µM
Ki: 0.314 µM

SMILES: CC(C)(C(=O)Nc1ccc(C#N)c(C(F)(F)F)c1)n1ccc2cc([N+](=O)[O-])ccc21 [Example 6, N-(4-cyano-3-trifluoromethyl)-phenyl-2-(5-nitro-1H-indolyl-1-yl)-2-methylpropanamide]
IC50: 0.261 µM
Ki: 0.421 µM

SMILES: CC(C)(C(=O)Nc1ccc(C#N)c(C(F)(F)F)c1)n1ccc2cc(C(F)(F)F)ccc21 [Example 8, N-(4-cyano-3-trifluoromethyl)-phenyl-2-(5-trifluoromethyl-1H-indolyl-1-yl)-2-methylpropanamide]
IC50: 0.357 µM
Ki: 0.44 µM

SMILES: CC(C)(C(=O)Nc1ccc(C#N)c(C(F)(F)F)c1)n1ccc2cc(C#N)ccc21 [Example 9, N-(4-cyano-3-trifluoromethyl)-phenyl-2-(5-cyano-1H-indolyl-1-yl)-2-methylpropanamide]
IC50: 0.232 µM
Ki: 0.445 µM

SMILES: CC(C)(C(=O)Nc1ccc(C#N)c(C(F)(F)F)c1)N1CCc2cc(F)ccc21 [Example 10, N-(4-cyano-3-trifluoromethyl)-phenyl-2-(5-fluoro-1H-2,3-dihydroindolyl-1-yl)-2-methylpropanamide]
IC50: 0.437 µM
Ki: 0.387 µM

SMILES: CC(C)(C(=O)Nc1ccc(C#N)c(C(F)(F)F)c1)N1CCc2cc(F)c(F)cc21 [Example 11, N-(4-cyano-3-trifluoromethyl)-phenyl-2-(5,6-difluoro-1H-2,3-dihydroindolyl-1-yl)-2-methylpropanamide]
IC50: 0.505 µM
Ki: 0.505 µM

SMILES: CC(C)(C(=O)Nc1ccc(C#N)c(Cl)c1)n1ccc2cc(F)ccc21 [Example 12, N-(3-chloro-4-cyano) phenyl-2-(5-fluoro-1H-indolyl-1-yl)-2-methylpropanamide]
IC50: 0.205 µM
Ki: 0.351 µM

SMILES: CC(C)(C(=O)Nc1ccc(C#N)c(C(F)(F)F)c1)n1cc(-c2ccc(F)cc2)c(F)n1 [Example 13, N-(4-cyano-3-trifluoromethyl)-phenyl-2-[3-fluoro-4-(4-fluorophenyl)-1H-pyrazolyl-1-yl]-2-methylpropanamide]
IC50: 0.416 µM

SMILES: CC(C)(C(=O)Nc1ccc(C#N)c(C(F)(F)F)c1)n1cc(-c2ccc(F)cc2)cn1 [Example 14, N-(4-cyano-3-trifluoromethyl)-phenyl-2-[4-(4-fluorophenyl)-1H-pyrazolyl-1-yl]-2-methylpropanamide]
IC50: 0.76 µM

SMILES: CC(C)(C(=O)Nc1ccc(C#N)c(C(F)(F)F)c1)n1cc(F)cn1 [Example 15, N-(4-cyano-3-trifluoromethyl)-phenyl-2-(4-fluoro-1H-pyrazolyl-1-yl)-2-methylpropanamide]
IC50: 0.125 µM

SMILES: CC(C)(C(=O)Nc1ccc(C#N)c(C(F)(F)F)c1)n1ccc(F)n1 [Example 16, N-(4-cyano-3-trifluoromethyl)-phenyl-2-(3-fluoro-1H-pyrazolyl-1-yl)-2-methylpropanamide]
IC50: 0.147 µM

SMILES: CC(C)(C(=O)Nc1ccc(C#N)c(C(F)(F)F)c1)n1cc(Cl)cn1 [Example 17, N-(4-cyano-3-trifluoromethyl)-phenyl-2-(4-chloro-1H-pyrazolyl-1-yl)-2-methylpropanamide]
IC50: 0.116 µM

IC50: 0.073 µM
SMILES: CC(C)(C(=O)Nc1cnc(C#N)c(C(F)(F)F)c1)n1cc(F)cn1 [Example 22]

SMILES: N#Cc1ccc(NC(=O)C2(n3cc(F)cn3)CCC2)cc1C(F)(F)F [Example 23, N-(4-cyano-3-trifluoromethyl)-phenyl-1-(4-fluoro-1H-pyrazolyl-1-yl)-cyclobutane-formamide]
IC50: 0.115 µM

IC50: 0.068 µM
SMILES: N#Cc1ncc(NC(=O)C2(n3cc(F)cn3)CCC2)cc1C(F)(F)F [Example 24, N-(6-cyano-5-trifluoromethyl-pyridyl-3-yl)-1-(4-fluoro-1H-pyrazolyl-1-yl) -cyclobutane-formamide]

SMILES: CC(C)(C(=O)Nc1ccc(C#N)c(C(F)(F)F)c1)n1cc(Br)c(F)n1 [Example 25, 2-(4-bromo-3-fluoro-1H-pyrazolyl-1-yl)-N-(4-cyano-3-trifluoromethyl)-phenyl-2-methylpropanamide]
IC50: 0.091 µM

SMILES: CC(C)(C(=O)Nc1ccc(C#N)c(C(F)(F)F)c1)n1cc(F)c(F)n1 [Example 26, 2-(3,4-difluoro-1H-pyrazolyl-1-yl)-N-(4-cyano-3-trifluoromethyl)-phenyl-2-methylpropanamide]
IC50: 0.075 µM

SMILES: CC(C)(C(=O)Nc1ccc(C#N)c(C(F)(F)F)c1)n1cc(Cl)c(F)n1 [Example 29, 2-(3-fluoro-4-chloro-1H-pyrazolyl-1-yl)-N-(4-cyano-3-trifluoromethyl)-phenyl-2-methylpropanamide]
IC50: 0.105 µM

SMILES: CC(C)(C(=O)Nc1ccc(C#N)c(C(F)(F)F)c1)n1cc(C#N)c(Cl)n1 [Example 30, 2-(3-chloro-4-cyano-1H-pyrazolyl-1-yl)-N-(4-cyano-3-trifluoromethyl)-phenyl-2-methylpropanamide]
IC50: 0.088 µM
